# Target: T1, human KSP motor domain (KSP(367H)) (Homo sapiens, UniProt P52732)
# T1 construct: were used to amplify the motor domain and the neck linker region; made in house; host or cells: E. coli BL21 (DE3), pRSETa
# T1 sequence (P52732 18-359 limits assumed): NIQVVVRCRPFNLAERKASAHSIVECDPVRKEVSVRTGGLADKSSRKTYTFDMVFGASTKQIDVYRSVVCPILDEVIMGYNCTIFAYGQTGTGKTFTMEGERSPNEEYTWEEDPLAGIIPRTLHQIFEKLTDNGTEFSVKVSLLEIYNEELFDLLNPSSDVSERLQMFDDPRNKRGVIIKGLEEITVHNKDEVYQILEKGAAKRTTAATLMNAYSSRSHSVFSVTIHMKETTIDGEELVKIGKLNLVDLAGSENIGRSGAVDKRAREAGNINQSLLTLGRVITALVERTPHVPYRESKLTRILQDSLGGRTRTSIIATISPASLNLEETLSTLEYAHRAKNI
# Assay: Kinesin ATPase In Vitro Assay
# Assay type: biochemical
# Conditions: kinesin motor domain with microtubules, 1 mM ATP, 23° C.
# From the text: I. Kinesin ATPase In Vitro Assay
# Cloning and Expression of Human Poly-Histidine Tagged KSP Motor Domain (KSP(367H))
# Plasmids for the expression of the human KSP motor domain construct were cloned by PCR using a pBluescript full length human KSP construct (Blangy et al., Cell, vol. 83, pp 1159-1169, 1995) as a template. The N-terminal primer 5′-[…] (SEQ. ID. NO.: 1) and the C-terminal primer 5′-[…] […] (SEQ. ID. NO.: 2) were used to amplify the motor domain and the neck linker region. The PCR products were digested with AseI and XhoI, ligated into the NdeI/XhoI digestion product of pRSETa (Invitrogen) and transformed into E. coli BL21 (DE3).
# Cells were grown at 37° C. to an OD600 of 0.5. […]
# The kinesin motor domain is incubated with microtubules, 1 mM ATP (1:1 MgCl2: Na-ATP), and compound at 23° C. in buffer containing 80 mM K-HEPES (pH 7.0), 1 mM EGTA, 1 mM DTT, 1 mM MgCl2, and 50 mM KCl. […] Free phosphate from the ATP hydrolysis reaction is measured via a quinaldine red/ammonium molybdate assay by adding a […] of quench C (e.g., to a mixture of 40 μl reaction volume+40 μl stop buffer is then added 120 μl quench C). […] Quench C is a 2:1 ratio of quench A:quench B The reaction is incubated for 5-10 minutes at 23° C., and the absorbance of the phospho-molybdate complex is measured at 540 nm.
row,Structure (SMILES),IC50
1,"CC(=O)N1N=C(c2cc(F)ccc2F)C[C@@]1(CC[C@@H](N)CF)c1ccccc1 [Compound 2-7, [(1R)-3-[(5S)-1-Acetyl-3-(2,5-difluorophenyl)-5-phenyl-4,5′-dihydro-1H-pyrazol-5-yl]-1-(fluoromethyl)propyl]amine]",≤ 50 µM
2,"CC(=O)N1N=C(c2cc(F)ccc2F)C[C@@]1(CC[C@H](N)CF)c1ccccc1 [Compound 2-8, [(1S)-3-[(5S)-1-Acetyl-3-(2,5-difluorophenyl)-5-phenyl-4,5-dihydro-1H-pyrazol-5-yl]-1-(fluoromethyl)propyl]amine]",≤ 50 µM
